Test results taken from the SangsterLogP compilation.
Non-standard residues stand in square brackets, D forms with d. Residues, ends and D or L forms follow the SMILES beside them.

Legend:
[1] = method code SF-HPLC, from Pan, J.; Wu, Z.; Hui, A.; Tao, M. (2011). Determination of partition coefficients of ginkgolide beta and its prodrug. Shizhen Guo Yi Guo Yao, 22(10)2397-2400.
[2] = method code SF-RC, from DOI: 10.1016/j.nucmedbio.2006.10.003, PMID: 17210465; conditions: pH 7.4
[3] = method code SF-RC, from DOI: 10.1002/jlcr.3239, PMID: 25359578; conditions: pH 7.4
[4] = from Zeng, J.; Huang, T.; Li, F.; Zhu, Z.; Chen, L.; Feng, L. (2014). Determination of apparent oil-water partition coefficient and equilibrium solubility of levonorgestrel and gestodene by RP-HPLC. …
[5] = not given; remark: listed apart in the source
[6] = not given; remark: listed apart in the source
[7] = method code SF-RC, from PMID: 447850; conditions: pH 7.4
[8] = not given; remark: listed apart in the source
[9] = not given; remark: listed apart in the source
[10] = method code SF-RC, from DOI: 10.1002/jlcr.3404, PMID: 27126914; conditions: pH 7.4
[11] = from Letourneux, Y.; Sparfel, L.; Roussakis, C.; Piessard, S.; LeBaut, G. (1984). Pyrophthalones. VI. Derivatives of (N-alkyldihydro-1,4-pyridinyliden-4-yl)-2-indanedione-1,3. Search for antitumor …; conditions: pH 7.4
[12] = method code SF-AS, from DOI: 10.1021/jm9807104, PMID: 10514282; conditions: pH 7.0
[13] = method code SF-RC, from DOI: 10.1021/es60172a005, PMID: 22280000
[14] = method code SF-HPLC, from DOI: 10.1016/j.jpba.2007.09.019, PMID: 17988818
[15] = not given; remark: listed apart in the source
[16] = method code SF-AS, from DOI: 10.1016/0304-4165(87)90236-4, PMID: 2889474
[17] = method code SF, from DOI: 10.1016/s0223-5234(00)80025-2, PMID: 11278041; conditions: pH 7.4
[18] = method code SF, from PMID: 3183
[19] = method code SF-AS, from DOI: 10.1002/jps.2600720808, PMID: 6620139
[20] = method code SF-RC, from DOI: 10.1021/jm050166g.s001, PMID: 16162001; conditions: pH 7.4
[21] = not given; remark: listed apart in the source
[22] = method code SF-AS, from PMID: 7271269; conditions: pH 6.0
[23] = method code SF, from DOI: 10.1021/jm300192x, PMID: 22519985; conditions: pH 7.4
[24] = method code SF-AS, from DOI: 10.1021/jm300468t, PMID: 22574992; conditions: pH 9.0
[25] = method code SF-AS, from DOI: 10.1016/0014-2999(72)90235-x, PMID: 4113999
[26] = not given; remark: listed apart in the source
[27] = not given; remark: listed apart in the source
[28] = method code SF-HPLC, from DOI: 10.1016/0168-3659(92)90067-2
[29] = not given; remark: listed apart in the source
[30] = method code SF-AS, from PMID: 7460030; conditions: pH 7.3
[31] = not given; remark: listed apart in the source
[32] = not given; remark: listed apart in the source
[33] = not given; remark: listed apart in the source
[34] = method code SF, from DOI: 10.1002/syn.20842; conditions: pH 7.4
[35] = method code SF-AS, from DOI: 10.1021/jm00371a026, PMID: 6425501; conditions: pH 7.4
[36] = method code SF, from DOI: 10.1021/jm00169a014, PMID: 2362268; conditions: pH 7.4
[37] = method code SF-AS, from DOI: 10.1111/j.2042-7158.1983.tb02957.x, PMID: 6135774
[38] = not given; remark: listed apart in the source
[39] = method code SF-RC, from DOI: 10.1016/j.nucmedbio.2009.01.009, PMID: 19423014; conditions: pH 7.4
[40] = method code SF-HPLC, from DOI: 10.1002/jps.23140, PMID: 22499243; conditions: pH 7.4
[41] = not given; remark: listed apart in the source

CC1C(=O)OC2C(O)C34C5CC(C(C)(C)C)C36C(OC(=O)C6O)OC4(C(=O)O5)C12O (configuration not stated)
logP [1]: 0.59

CN(C)c1ccc(/C=C/c2ccc(OCCOCCOCCF)nc2)cc1
logD [2]: 3.22

COCCOC(=O)C1=C(C)NC(C)=C(C(=O)OC(C)C)C1c1cccc([N+](=O)[O-])c1 (configuration not stated)
logP: 2.82

O=C(NCCF)Nc1ccc(-c2nc(N3CC4CCC(C3)O4)c3cnn(CC(F)(F)F)c3n2)cc1
logD [3]: 1.9

C#C[C@]1(O)C=C[C@H]2[C@@H]3CCC4=CC(=O)CC[C@@H]4[C@H]3CC[C@@]21CC
logP [4]: 3.45

CNC(=O)c1ccc(Oc2ccc3c(c2)CCN(C2CCC2)CC3)nc1
logP [5]: 2.24

FCCC1OC2(CCN(Cc3ccccc3)CC2)c2ccccc21 (configuration not stated)
logP [6]: 3.58

C[C@]12CCC(=O)C=C1CC[C@@H]1[C@@H]2[C@@H](O)C[C@]2(C=O)[C@@H](C(=O)CO)CC[C@@H]12
logD [7]: 1.08

COc1cc(C2c3cc4c(cc3C(O)C3COC(=O)C23)OCO4)cc(OC)c1OC (configuration not stated)
logP [8]: 2.01

CN(C)CCO[C@]1(c2ccccc2)C[C@H]2CC[C@]1(C)C2(C)C
logP [9]: 5.9

COc1ccc2c(C3=C(c4cn(C)c5ccc(I)cc45)C(=O)NC3=O)coc2c1
logD [10]: 3.23

CC1=CC(=C2C(=O)c3ccccc3C2=O)C=C(C)N1CCCNC(=O)N(CCCl)N=O
logD [11]: 2.84

COC(=O)C(C)NP(=O)(Oc1cccc(C(F)(F)F)c1)OC1C=CC(n2cc(C)c(=O)[nH]c2=O)O1 (configuration not stated)
logD [12]: 1.57

Cc1ccc2cc3c(ccc4ccccc43)c3c2c1CC3
logP [13]: 6.42

COc1cc(C=Cc2cc(/C=C/c3ccc(O)c(OC)c3)n[nH]2)ccc1O
logP [14]: 1.78

O[C@H](CNC[C@H](O)[C@H]1COc2ccccc2O1)[C@@H]1COc2ccccc2O1
logP [15]: 2.45

C=C1C(=O)OC2CC(C)C3C=CC(=O)C3(C)C(OC(=O)C=C(C)C)C12 (configuration not stated)
logP [16]: 1.47

CC(C)Cc1ccc(C(C)C(=O)OCN2C(=O)C(=O)c3ccccc32)cc1 (configuration not stated)
logD [17]: 4.23

CCCCC(CC)CN1CN(CC(CC)CCCC)CC(C)(N)C1 (configuration not stated)
logP [18]: 2.05

C[C@]12CCC(=O)C=C1CC[C@@H]1[C@@H]2CC[C@@]2(C)[C@H]1CC[C@]2(C)O
logP [19]: 3.36

CN(C)c1ccc(C=Cc2ccc(OCC(CO)CF)cc2)cc1 (configuration not stated)
logD [20]: 3.14

O=C1C(=O)c2ccccc2C(O)=C1C1CCC(c2ccc(Cl)cc2)CC1 (configuration not stated)
logP [21]: 5.07

COCOC(=O)C1N2C(=O)C(N3C(=O)C(c4ccc(O)cc4)NC3(C)C)C2SC1(C)C (configuration not stated)
logD [22]: 0.3

OCC1OC(c2ccc(N3CCc4ccccc43)cc2)C(O)C(O)C1O (configuration not stated)
logD [23]: 2.3

Cc1c2c3cc(NC(=O)CNC(=O)CN)ccc3nc-2n(C)c2ccccc12
logD [24]: 0.85

OCCN1CCN(CCC=C2c3ccccc3Sc3ccc(Cl)cc32)CC1
logP [25]: 3

CN(C)Cc1ccc(CSCCNc2[nH]cc(Cc3ccccc3)c2[N+](=O)[O-])o1
logP [26]: 3.65

CCCCC[C@H](O)/C=C/[C@H]1[C@H](O)CC(=O)[C@@H]1C/C=C\CCCC(=O)O
logP [27]: 2.9

CC(=O)N[C@H](Cc1ccc(O)cc1)C(=O)N[C@H](Cc1ccc(O)cc1)C(N)=O (Ac-[dY]-[dY]-NH2)
logP [28]: -0.16

N#CCNC(=O)[C@@H]1CCCC[C@H]1C(=O)N1CCN(c2ccccc2)CC1
logP [29]: 1.8

CCCCCOc1cccc(NC(=O)OC2CCCCC2)c1-n1ccnc1
logD [30]: 3.38

FCCOc1ccc(CN2CCN(Cc3cc4ccccc4o3)CC2)cc1
logP [31]: 3.35

CSc1nc(Nc2ccccc2)c2cnn(CCCl)c2n1
logP [32]: 5.49

COc1cc(NC(C)=O)c(I)cc1C(=O)NCCCCN1CC2CCC1C2 (configuration not stated)
logP [33]: 0.8

CCCS(=O)(=O)N1CCC(CNC(=O)c2ccc(Cl)cc2Cl)(c2cccc(F)n2)CC1
logD [34]: 2.9

CO[C@@]12[C@H](COC(N)=O)C3=C(C(=O)C(C)=C(Nc4cccnc4)C3=O)N1C[C@@H]1N[C@@H]12
logD [35]: 0.52

CC(=O)Oc1ccc(C(c2ccc(OC(C)=O)cc2)c2ccccn2)cc1
logD [36]: 2.64

COc1cc(N)c(Cl)cc1C(=O)NC1CCN(Cc2ccccc2)CC1
logP [37]: 2.99

CCOc1ccccc1OCCN[C@H](C)Cc1ccc(OC)c(S(N)(=O)=O)c1
logP [38]: 2.2

CCCCOc1c(OC)ccc2cc(C(=O)NC3CCCCC3)c(=O)[nH]c12
logD [39]: 3.9

CCCCCCCCCCCCOP1(=O)OCC(Cn2ccc(N)nc2=O)O1 (configuration not stated)
logD [40]: 3.89

Oc1ccc2ccccc2c1/N=N/c1ccc(/N=N/c2ccccc2)cc1
logP [41]: 2.11
